# Data published in the supplement of paper PMC10307832.
# Legend:
# Experiment in all cases: relative viability (nuclei count vs DMSO), 5 days (fraction); higher = more cells survive
# XMD8-85 + Olaparib = compound: CN1CCN(CC1)C2=CC(=C(C=C2)NC3=NC=C4C(=N3)N(C5=CC=CC=C5C(=O)N4C)C)OC [XMD8-85] + O=C(c1cc(Cc2n[nH]c(=O)c3ccccc23)ccc1F)N1CCN(C(=O)C2CC2)CC1 [Olaparib] (partner 8 µM)
# Method in brief: (§1)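 Lung cancer cell lines were pin-tool dosed in 1536-well plates on the day after seeding, with either a lone drug or a fixed anchor-drug dose plus five library-drug doses (not always all listed) in √10 steps. Nuclei were counted on 4× images after 5 days. Relative viability is the ratio of treated-well to vehicle-well nuclei counts, with each value a median of duplicate plates.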
# 4EGI-1 + Phenformin = compound: O=C(O)C(Cc1ccccc1[N+](=O)[O-])=NNc1nc(-c2ccc(Cl)c(Cl)c2)cs1 (mixture of isomers) [4EGI-1] + N=C(N)NC(=N)NCCc1ccccc1 [Phenformin] (partner 250 µM)
# Method in brief: as §1
# 4EGI-1 = compound: O=C(O)C(Cc1ccccc1[N+](=O)[O-])=NNc1nc(-c2ccc(Cl)c(Cl)c2)cs1 (mixture of isomers) [4EGI-1]
# Method in brief: (§2)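 Lung cancer cell lines were seeded into 1536-well plates, kept overnight at 37 °C and pinned with five library-drug doses (not always all listed) spaced by √10. After 5 days, nuclei were Hoechst-stained, imaged at 4× and counted with MetaXpress. Viability is treated-well nuclei over vehicle-well nuclei, taken as a median across plates. Plates needed control CV below 25% and at least one doubling.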
# XMD8-85 = compound: CN1CCN(CC1)C2=CC(=C(C=C2)NC3=NC=C4C(=N3)N(C5=CC=CC=C5C(=O)N4C)C)OC [XMD8-85]
# Method in brief: as §2
cell line,measurement,setting,value
NCI-H1792,relative viability,XMD8-85 + Olaparib; first compound 0.253 µM,0.526
same,relative viability,XMD8-85 + Olaparib; first compound 0.8 µM,0.298
same,relative viability,XMD8-85 + Olaparib; first compound 2.53 µM,0.284
same,relative viability,XMD8-85 + Olaparib; first compound 8 µM,0.318
same,relative viability,4EGI-1 + Phenformin; first compound 0.5 µM,0.285
same,relative viability,4EGI-1 + Phenformin; first compound 1.581 µM,0.462
same,relative viability,4EGI-1 + Phenformin; first compound 5 µM,0.41
same,relative viability,4EGI-1 + Phenformin; first compound 15.81 µM,0.322
same,relative viability,4EGI-1 + Phenformin; first compound 50 µM,0.378
same,relative viability,4EGI-1; 0.5 µM,0.99
same,relative viability,4EGI-1; 1.581 µM,1.1
same,relative viability,4EGI-1; 5 µM,0.941
same,relative viability,4EGI-1; 15.81 µM,0.903
same,relative viability,4EGI-1; 50 µM,0.608
same,relative viability,XMD8-85; 0.253 µM,0.904
same,relative viability,XMD8-85; 2.53 µM,1.14
same,relative viability,XMD8-85; 8 µM,0.704
